# Read-outs that look alike come from different tables or passages of the source.
# Biological target: GABA receptor-chloride ionophore complex (GR complex)
# Assay: [35S]TBPS binding modulation assay
# Details: for Max. Inhib., maximal % of specifically bound [35S]-TBPS displaced: saturating concentrations of test compound
# [1] = read-out: IC50, inhibition of [35S]-TBPS binding, +5 μM GABA, in the presence of 5 μM GABA
# [2] = washed synaptoneurosomes, no GABA added
# [3] = read-out: IC50, inhibition of [35S]-TBPS binding, No GABA, washed synaptoneurosomes, no GABA added
SMILES,IC50 [1] [µM],"Max. Inhib., maximal % of specifically bound [35S]-TBPS displaced [%]","IC50, inhibition of [35S]-TBPS binding, No GABA [2]",IC50 [3] [µM],"IC50, inhibition of [35S]-TBPS binding, +5 μM GABA (in the presence of 5 μM GABA)",potency/activity at the GR complex (modulation of [35S]TBPS binding)
CC(=O)C1=CC[C@H]2[C@@H]3CC[C@@H]4C[C@H](O)CC[C@]4(C)[C@H]3CC[C@]12C [3α-HYDROXY-5β-PREGN-16-EN-20-ONE],1,100,–,–,–,–
"C/C=C1/CC[C@H]2[C@@H]3CC[C@H]4C[C@H](O)CC[C@]4(C)[C@H]3CC[C@]12C [3α-HYDROXY-5α-CIS-PREGN-17(20)-ENE, 3α-hydroxy-(5α)-cis-pregn-17(20)-ene]",0.068,100,–,–,–,–
"C[C@]12C[C@H](O)[C@H]3[C@@H](CCC4=CC(=O)CC[C@@]43C)[C@@H]1CC[C@@H]2C(=O)CO [4-PREGNEN-11b,21-DIOL- 3,20-DIONE, reference compound]",> 100,21,Inactive,–,–,–
"CC(=O)[C@H]1CC[C@H]2[C@@H]3CC[C@H]4C[C@@](C)(O)CC[C@]4(C)[C@H]3CC[C@]12C [3β-HYDROXY-3α-METHYL-5α-PREGNAN-20-ONE, 3β-HYDROXY-3α-METHYL-5α- PREGNAN-20-ONE]",7.4,55,–,–,–,–
"CC(=O)[C@H]1CC[C@H]2[C@@H]3CC[C@H]4C[C@@H]5O[C@@H]5C[C@]4(C)[C@H]3CC[C@]12C [2,3-EPOXY-5α-PREGNAN-20-ONE, 2α,3α-Epoxy-5α-pregnan-20-one, reference compound]",100,–,–,–,–,–
"C[C@]12CC[C@@H](O)C[C@@H]1CC[C@@H]1[C@@H]2CC[C@]2(C)[C@@H](O)CC[C@@H]12 [5α-ANDROSTAN-3α,17β-DIOL, 5α-ANDROSTAN-3α ,17β-DIOL]",1,100,–,15,–,–
"CC(C)CCC[C@@H](C)[C@H]1CC[C@H]2[C@@H]3CC=C4C[C@@H](O)CC[C@]4(C)[C@H]3CC[C@]12C [CHOLESTEROL, reference compound]",–,0,Inactive,–,Inactive,essentially inactive
"CC(=O)[C@H]1CC[C@H]2[C@@H]3CC[C@H]4C[C@H](O)CC[C@]4(C)[C@H]3C(=O)C[C@]12C [alphaxalone, 5α-PREGNAN-3α-OL-11,20-DIONE, reference compound]",0.264,–,–,11,–,–
"C[C@@H](O)[C@H]1CC[C@H]2[C@@H]3CC[C@H]4C[C@H](O)CC[C@]4(C)[C@H]3CC[C@]12C [5α-PREGNAN-3α,20β-DIOL]",1,100,–,–,–,–
"CC(=O)[C@H]1CC[C@H]2[C@@H]3CC=C4C[C@@H](O)CC[C@]4(C)[C@H]3CC[C@]12C [5-PREGNEN-3β-OL-20-ONE (PREGNENOLONE), 5-PREGNEN-3β-OL-20-ONE, reference compound]",> 100,30,Inactive,–,–,–
CO[C@@H]1C[C@H]2[C@@H]3CC[C@H]4C[C@H](O)CC[C@]4(C)[C@H]3CC[C@]2(C)[C@H]1C(C)=O [3α-HYDROXY-5α-PREGNAN-16α-METHOXY-20-ONE],4.5,73,–,–,–,–
C[C@]12CC[C@@H](O)C[C@@H]1CC[C@@H]1[C@@H]2CC[C@]2(C)[C@@H](C(=O)CCl)CC[C@@H]12 [21-CHLORO-5α-PREGNAN-3α-OL-20-ONE],0.08,100,–,–,–,–
"C[C@]12CC[C@@H]3c4ccc(O)cc4CC[C@H]3[C@@H]1CC[C@@H]2O [17β-ESTRADIOL, reference compound]",–,0,Inactive,–,Inactive,–
